Reference: ChEMBL document CHEMBL4819110, “Developments of small molecules as inhibitors for carbonic anhydrase isoforms” (Bioorg Med Chem, 2021)
The source made the active and inactive calls. The calls are words filed in the database; no cut-off is given here.

How the values were obtained:
Carbonic anhydrase 9 = Carbonic anhydrase 9 (Homo sapiens, UniProt Q16790)
Description: Inhibition of human CA9 by stopped-flow assay

HT-29 [1] = experiment: Down regulation of CA9 expression in human HT-29 cells at […] by western blot analysis; assay type: functional, cell-based
HT-29 [2] = experiment: Down regulation of CA12 expression in human HT-29 cells at […] by western blot analysis; assay type: functional, cell-based
Oryctolagus cuniculus = experiment: Antiglaucoma activity in rabbit assessed as reduction in intraocular pressure administered topically measured upto 6 hrs; assay type: functional, organism-based; conditions: time hrs <=6
MDA-MB-231 [3] = experiment: Induction of cell cycle arrest in human MDA-MB-231 cells assessed as increase in sub-G1 accumulation at IC50 by flow cytometry analysis; assay type: functional, cell-based
MDA-MB-231 [4] = experiment: Induction of cell cycle arrest in human MDA-MB-231 cells assessed as […] in G2/M accumulation at IC50 by flow cytometry analysis; assay type: functional, cell-based
MDA-MB-231 [5] = experiment: Induction of apoptosis in human MDA-MB-231 cells assessed as early apoptotic cells at IC50 by flow cytometry analysis (reference value: 0.77 %); assay type: functional
MDA-MB-231 [6] = experiment: Induction of apoptosis in human MDA-MB-231 cells assessed as late apoptotic cells at IC50 by flow cytometry analysis (reference value: 0.26 %); assay type: functional
MDA-MB-231 [7] = experiment: Induction of apoptosis in human MDA-MB-231 cells assessed as necrotic cells at IC50 by flow cytometry analysis (reference value: 0.51 %); assay type: functional
Carbonic anhydrase 4 = Carbonic anhydrase 4 (Homo sapiens, UniProt P22748); experiment: Inhibition of human CA4 by stopped-flow assay
Sequence of Carbonic anhydrase 4 (P22748 whole entry): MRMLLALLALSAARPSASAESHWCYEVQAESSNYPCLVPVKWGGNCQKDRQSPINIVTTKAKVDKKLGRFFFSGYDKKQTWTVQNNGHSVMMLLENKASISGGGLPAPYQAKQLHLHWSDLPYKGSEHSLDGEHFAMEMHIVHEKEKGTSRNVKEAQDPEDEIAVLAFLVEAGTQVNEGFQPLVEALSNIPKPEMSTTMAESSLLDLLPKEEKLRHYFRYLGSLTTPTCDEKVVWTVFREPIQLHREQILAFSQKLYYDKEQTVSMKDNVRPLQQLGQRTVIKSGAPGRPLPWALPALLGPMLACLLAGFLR

Carbonic anhydrase 1 = Carbonic anhydrase 1 (Homo sapiens, UniProt P00915)
Sequence of Carbonic anhydrase 1 (P00915 whole entry): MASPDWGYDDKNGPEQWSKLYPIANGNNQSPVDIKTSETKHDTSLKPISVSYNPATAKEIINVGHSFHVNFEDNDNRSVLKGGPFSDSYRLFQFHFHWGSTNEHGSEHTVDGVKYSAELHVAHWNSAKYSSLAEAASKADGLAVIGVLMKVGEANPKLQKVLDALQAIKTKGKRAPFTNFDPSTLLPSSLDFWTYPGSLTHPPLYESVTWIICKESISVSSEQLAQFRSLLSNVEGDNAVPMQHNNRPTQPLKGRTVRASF
Description: Inhibition of human CA1 by stopped-flow assay

Carbonic anhydrase 2 = Carbonic anhydrase 2 (Homo sapiens, UniProt P00918)
Description: Inhibition of human CA2 by stopped-flow assay

[8] = molecular target: Mitogen-activated protein kinase 14 (Homo sapiens, UniProt Q16539); experiment: Inhibition of p38alphaMAPK (unknown origin)
Sequence of Mitogen-activated protein kinase 14 (Q16539 whole entry): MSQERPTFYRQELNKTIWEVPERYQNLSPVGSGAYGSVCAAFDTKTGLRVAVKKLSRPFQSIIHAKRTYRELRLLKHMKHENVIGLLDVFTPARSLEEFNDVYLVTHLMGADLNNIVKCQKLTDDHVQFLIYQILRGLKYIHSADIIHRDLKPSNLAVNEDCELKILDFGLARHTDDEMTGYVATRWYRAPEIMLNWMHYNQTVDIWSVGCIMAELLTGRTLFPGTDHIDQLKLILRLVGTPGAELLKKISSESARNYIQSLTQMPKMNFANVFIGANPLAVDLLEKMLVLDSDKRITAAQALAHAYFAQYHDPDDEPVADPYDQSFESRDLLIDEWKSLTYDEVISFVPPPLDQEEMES

MCF7 = experiment: Cytotoxicity against human MCF7 cells; assay type: functional, cell-based

**Q.** Which Ki (Carbonic anhydrase 9) does the source give for `NS(=O)(=O)c1ccc(-n2nnc(C(=O)O)c2-c2ccccn2)cc1` here?
**A.** 1.41 µM

**Q.** For `NS(=O)(=O)c1ccc(C/N=C/c2c(OCc3cn(CCCOc4ccc5ccc(=O)oc5c4)nn3)ccc3ccccc23)cc1`, which Activity (HT-29 [1]) is on record?
**A.** Active

**Q.** What about the Activity (HT-29 [2]) of the same compound?
**A.** Active

**Q.** For `NS(=O)(=O)c1ccc(-n2nnc(C(=O)N3N=C(c4ccccn4)CC3(O)C(F)(F)F)c2-c2ccc(F)cc2)cc1` (stereo not drawn), which Ki (Carbonic anhydrase 9) is on record?
**A.** 0.0007 µM

**Q.** With `NS(=O)(=O)c1ccc(C(=O)N[C@@H]2O[C@H](CO)[C@@H](O)[C@H](O)[C@@H]2O)cc1` as the compound, how does the Activity (Oryctolagus cuniculus) read?
**A.** Active

**Q.** Which results are given for `NS(=O)(=O)c1ccc(NC(=O)Nc2ccc(/N=C3\C(=O)Nc4ccc(Cl)cc43)cc2)cc1`?
**A.** Ki (Carbonic anhydrase 9): 7430 µM; Activity (MDA-MB-231 [3]): Active; Activity (MDA-MB-231 [4]): Active; Activity (MDA-MB-231 [5]): 7.28%; Activity (MDA-MB-231 [6]): 11.26%; Activity (MDA-MB-231 [7]): 2.47%

**Q.** For `COc1cc(/C=C2/N=C(c3ccccc3)N(c3ccc(S(N)(=O)=O)cc3)C2=O)cc(OC)c1OC`, which Ki (Carbonic anhydrase 9) is on record?
**A.** 0.0682 µM

**Q.** How did the Activity (Oryctolagus cuniculus) turn out when `NS(=O)(=O)c1ccc(C(=O)N[C@@H]2OC[C@@H](O)[C@H](O)[C@H]2O)cc1` was run?
**A.** Active

**Q.** `COc1ccc(OC)c(/C=C2/N=C(c3ccccc3)N(c3ccc(S(N)(=O)=O)cc3)C2=O)c1` was tested. Which Ki (Carbonic anhydrase 9) did it give?
**A.** 0.023 µM

**Q.** What does the source list for `CC(=O)n1cc(/C=C2/N=C(c3ccccc3)N(c3ccc(S(N)(=O)=O)cc3)C2=O)c2ccccc21`?
**A.** Ki (Carbonic anhydrase 4): 0.263 µM; Ki (Carbonic anhydrase 9): 0.318 µM

**Q.** Which Ki (Carbonic anhydrase 9) does the source give for `CCN1C(=O)/C(=N\NC(=O)c2ccc(S(N)(=O)=O)cc2)c2ccccc21` here?
**A.** 0.0089 µM

**Q.** With `CC(=O)n1cc(/C=C2/N=C(c3ncccn3)N(c3ccc(S(N)(=O)=O)cc3)C2=O)c2ccccc21` as the compound, how does the Ki (Carbonic anhydrase 1) read?
**A.** > 10 µM

**Q.** And the Ki (Carbonic anhydrase 2)?
**A.** > 10 µM

**Q.** What about the Ki (Carbonic anhydrase 4) of the same compound?
**A.** > 10 µM

**Q.** What about the Ki (Carbonic anhydrase 9) of the same compound?
**A.** > 10 µM

**Q.** `COc1ccc(C2=N/C(=C/c3ccc(O)cc3)C(=O)N2c2ccc(S(N)(=O)=O)cc2)cc1` was tested. Which Ki (Carbonic anhydrase 1) did it give?
**A.** 0.095 µM

**Q.** And the Ki (Carbonic anhydrase 2)?
**A.** 0.00083 µM

**Q.** And the Ki (Carbonic anhydrase 4)?
**A.** 0.0069 µM

**Q.** What about the Ki (Carbonic anhydrase 9) of the same compound?
**A.** 0.0124 µM

**Q.** And the IC50 [8]?
**A.** 0.14 µM

**Q.** For `O=Cc1ccccc1OCc1cn(CCCOc2ccc3ccc(=O)oc3c2)nn1`, which Ki (Carbonic anhydrase 9) is on record?
**A.** 0.0609 µM

**Q.** And the Activity (HT-29 [1])?
**A.** Active

**Q.** What about the Activity (HT-29 [2]) of the same compound?
**A.** Active

**Q.** `NS(=O)(=O)c1ccc(Nc2nc(NN3C(=O)/C(=C\c4ccc(Cl)cc4)N=C3c3ccccc3)cs2)cc1` was tested. Which Ki (Carbonic anhydrase 9) did it give?
**A.** 0.0292 µM

**Q.** What about the IC50 (MCF7) of the same compound?
**A.** > 150 µM

**Q.** Which results are given for `CC(=O)NS(=O)(=O)c1ccc(N2C(=O)/C(=C\c3cn(C(C)=O)c4ccccc34)N=C2c2ccccc2)cc1`?
**A.** Ki (Carbonic anhydrase 4): > 10 µM; Ki (Carbonic anhydrase 9): 1.47 µM

**Q.** How did the Ki (Carbonic anhydrase 9) turn out when `NS(=O)(=O)c1ccc(N2C(=O)/C(=C\c3ccccc3)N=C2c2ccccc2)cc1` was run?
**A.** 0.0587 µM

**Q.** For `CN(C)c1ccc(/C=C2/N=C(c3ccccc3)N(Nc3csc(Nc4ccc(S(N)(=O)=O)cc4)n3)C2=O)cc1`, which IC50 (MCF7) is on record?
**A.** 38.9 µM

**Q.** `C[C@@H]1OC[C@@](O)(NC(=O)c2ccc(S(N)(=O)=O)cc2)[C@H](O)[C@H]1O` was tested. Which IC50 (Carbonic anhydrase 9) did it give?
**A.** 0.76 µM

**Q.** Which IC50 (MCF7) does the source give for `NS(=O)(=O)c1ccc(Nc2nc(NN3C(=O)/C(=C\c4ccccc4)N=C3c3ccccc3)cs2)cc1` here?
**A.** 45.9 µM

**Q.** With `COC(=O)[C@H]1O[C@@H](NC(=O)c2ccc(S(N)(=O)=O)cc2)[C@H](O)[C@@H](O)[C@@H]1O` as the compound, how does the Activity (Oryctolagus cuniculus) read?
**A.** Active
